The values that follow come from US20160349268A1, “STEPWISE ASSEMBLED CAPTURE COMPOUNDS COMPRISING A CLEAVABLE FUNCTION AND METHOD FOR ISOLATING AND/OR CHARACTERIZING BIOMOLECULES OR BIOMOLECULE FRAGMENTS, IN PARTICULAR PROTEINS OR PROTEIN FRAGMENTS, OF COMPLEX MIXTURES” (CAPROTEC BIOANALYTICS GMBH, priority 2014, published 2016).

Data set [1] is described as follows: Click-and-cleave without proteins/lysate (release of cleaved off photo-reacted reactivity function 15, LC-MS). In kind it is physicochemical. Particulars: for Area/a.u. of LC-MS EIC 249.10 peak at 1.75 min (cleaved off photo-reacted reactivity function 15): starting material bound to CPG-TCO beads 13. On the procedure: A solution of 100 μL 2.5 μM 11 (CPT727, Capture Compound bearing tetrazine as sorting function and a chemically cleavable photo-reactivity function) in phosphate buffered saline (PBS) was irradiated with UV light (λmax=310 nm) for 5 min at 4° C. in the caproBox (caprotec bioanalytics, Berlin. Germany) to activate the reactivity function yielding 12 (Scheme 12).
The resulting solution was incubated with 2 mg 13 (CPT601, CCB 4, trans-cyclooctene (TCO) modified controlled pore glass (CPG), CPG-TCO beads) over night at 4° C. to covalently bind compound 12 to 13 by the TCO-tetrazine click reaction yielding 14 (Scheme 12). During this time, 13 was kept in suspension by rotation.
Unbound 12 was removed by separating the supernating solution from 14 after centrifugation in a table top centrifuge and washing the solid 14 by re-suspending in fresh solution and removal of the supernatant after centrifugation (three times with 200 μl SL Buffer (50 mM Tris/HCl, 320 mM beta-mercaptoethanol, 2.5% sodium dodecylsulfate, 0.05% bromophenol blue, 10% glycerol, pH 6.8), three times with 200 μl 50% acetonitrile).
The washed 14 was divided into two aliquots. One aliquot was incubated with 10 mM 2-nitrobenzhydrazide and 10 mM HCl in 10 μl 50% acetonitrile (final concentrations and volume) at room temperature for 1 h while keeping 14 in suspension by rotation yielding the cleaved off photo-reacted reactivity function 15 (Scheme 12). As a control, the second aliquot of 14 was treated the same way side-by-side but without 2-nitrobenzhydrazide and HCl. The solutions supernating (cleaved) 14 were analyzed by LC-MS.
The same procedure was performed side-by-side using 16 (CPT634, Capture Compound bearing tetrazine as sorting function and non-cleavable photo-reactivity function) instead of 11.

The target in data set [2] is T1, 5-methylthioadenosine/S-adenosylhomocysteine nucleosidase (Escherichia coli, UniProt P0AF12).
T1 construct: prepared from the DH5a derivative of the E. coli K-12 strain; endogenous in cells; host or cells: E. coli K-12 DH5a lysate
T1 sequence (P0AF12 whole entry): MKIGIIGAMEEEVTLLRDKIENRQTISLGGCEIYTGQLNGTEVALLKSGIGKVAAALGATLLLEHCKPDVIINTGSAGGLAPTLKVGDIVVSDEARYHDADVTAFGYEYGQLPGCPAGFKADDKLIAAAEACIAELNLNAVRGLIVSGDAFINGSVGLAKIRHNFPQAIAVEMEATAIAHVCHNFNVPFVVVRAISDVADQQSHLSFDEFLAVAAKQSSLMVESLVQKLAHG
As to the kind of experiment: Click-and-cleave with proteins/lysate, nanoLC/MS2 protein quantification of gel slices. In kind it is binding, E. coli K-12 strain. Particulars: compound 2.5 μM, gel slice around 25 kDa. Here is the method:
(§1) Compound 11 (final concentration 2.5 μM) was incubated for 5 min at 4° C. with a lysate (final total protein concentration 5 mg/ml) prepared from the DH5a derivative of the E. coli K-12 strain in phosphate buffered saline (final volume 100 μl). In a so called competition control (designated “C” as opposed to “A” for CCMS assay without the competitor SAH) carried out side-by-side, S-adenosyl-L-homocysteine (SAH) (final concentration 250 μM) was added to the lysate before compound 11 to compete for the binding of the SAH selectivity function of 11 to SAH binding proteins such as S-adenosyl-L-methionine (SAM) dependent methyltransferases.
(§2) The samples were irradiated with UV light (λmax=310 nm) for 5 min in the caproBox (caprotec bioanalytics, Berlin, Germany) at about 4° C. to activate the reactivity function of 11 and form the covalent cross-link to proteins leading to 11-protein conjugates. Due to the SAH selectivity function in 11. SAH binding proteins will be selectively cross-linked to 11 and this selective crosslink will be diminished or inhibited in the competition control “C”.
(§3) The samples “A” and “C” were incubated with 250 μg 13 (CPT601, CCB 4, trans-cyclooctene (TCO) modified controlled pore glass (CPG). CPG-TCO beads), respectively, over night at 4° C. with rotation to keep the CPG beads (13) in suspension. During this time the 11-protein conjugates covalently bound to 13 by the TCO-tetrazine click reaction to form 13-11-protein conjugates. Selective binding of 11-protein conjugates to 13 was shown by taking 5 μl samples of “A” and “C”, respectively, before and after incubation with 13 and incubating these samples with 18 (final concentration 10 μM, CPT533. Probe 3, TCO-TAMRA) for 15 min at room temperature. Formed by the TCO-tetrazine click reaction, the fluorescent 18-11-protein conjugates were detected as in-gel fluorescent bands after SDS-PAGE. In the samples taken after incubation with 13, less in-gel fluorescent bands (18-11-protein conjugates) were detected than in the samples taken before incubation with 13, showing that 11-protein conjugates had reacted with 13 to form 13-11-protein conjugates.
(§4) The supernating solution was separated from the 13-11-protein conjugates after centrifugation in a table top centrifuge and the CPG beads containing the 13-11-protein conjugates were washed by re-suspending in fresh solution and removal of the supernatant after centrifugation (three times with 200 μl 4×SL Buffer, three times with 200 μl 50% acetonitrile).
(§5) The washed CPG beads containing the 13-11-protein conjugates were divided into two aliquots, respectively, for “A” and “C”. One aliquot was incubated with 10 mM 2-nitrobenzhydrazide and 10 mM HCl in 10 μl 50% acetonitrile (final concentrations and volume) at room temperature for 1 h while keeping the CPG beads containing the 13-11-protein conjugates in suspension by rotation yielding proteins with attached cleaved off photo-reacted reactivity function. As a control, the second aliquot of the CPG beads containing the 13-11-protein conjugates was treated the same way side-by-side but without 2-nitrobenzhydrazide and HCl. The proteins in the solutions supernating (cleaved) the CPG beads were analyzed by SDS-PAGE (4-20% Tris-Glycine gradient gels, 15 well, 1.0 mm; Novex® life Technologes® Ref. EC60255BOX, 25 min run time at 300 V) followed by silver staining (ProteoSilver Silver Stain Kit, Sigma).
(§6) Gel slices were cut out around 25 kDa in each gel lane corresponding to the molecular weight (height) of the specific gel lane marked by the red arrow in FIG. 13. The gel slices were treated with trypsin and the resulting peptides were analyzed by nanoLC/MS^2 (LTQ Orbitrap) followed by automatic software based protein identification and quantification (MaxQuant software package). […]

Data set [3] addresses T2, Ribosomal RNA small subunit methyltransferase G (Escherichia coli, UniProt P0A6U5).
T2 construct: prepared from the DH5a derivative of the E. coli K-12 strain; endogenous in cells; host or cells: E. coli K-12 DH5a lysate
The data set is described as above. It counts as binding, E. coli K-12 strain. Particulars: Cleavage, compound 2.5 μM, gel slice around 25 kDa. On the procedure:
as §1, §2, §3, §4, §5, §6

The target of data set [4] is T3, tRNA (cmo5U34)-methyltransferase (Escherichia coli, UniProt P76290).
T3 construct: prepared from the DH5a derivative of the E. coli K-12 strain; endogenous in cells; host or cells: E. coli K-12 DH5a lysate
T3 sequence (P76290 whole entry): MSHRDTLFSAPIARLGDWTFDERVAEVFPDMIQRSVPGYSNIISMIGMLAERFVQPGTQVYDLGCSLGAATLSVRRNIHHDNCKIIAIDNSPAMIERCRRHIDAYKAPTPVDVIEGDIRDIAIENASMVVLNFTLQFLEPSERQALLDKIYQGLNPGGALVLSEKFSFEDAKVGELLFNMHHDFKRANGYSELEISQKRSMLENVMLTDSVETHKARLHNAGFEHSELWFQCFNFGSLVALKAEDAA
Described as above. In kind it is binding, E. coli K-12 strain. Particulars: Cleavage, compound 2.5 μM, gel slice around 25 kDa. Here is the method: as §1, §2, §3, §4, §5, §6

For data set [5], the target named is T4, tRNA (guanine-N(7)-)-methyltransferase (Escherichia coli, UniProt P0A8I5).
T4 construct: prepared from the DH5a derivative of the E. coli K-12 strain; endogenous in cells; host or cells: E. coli K-12 DH5a lysate
T4 sequence (P0A8I5 whole entry): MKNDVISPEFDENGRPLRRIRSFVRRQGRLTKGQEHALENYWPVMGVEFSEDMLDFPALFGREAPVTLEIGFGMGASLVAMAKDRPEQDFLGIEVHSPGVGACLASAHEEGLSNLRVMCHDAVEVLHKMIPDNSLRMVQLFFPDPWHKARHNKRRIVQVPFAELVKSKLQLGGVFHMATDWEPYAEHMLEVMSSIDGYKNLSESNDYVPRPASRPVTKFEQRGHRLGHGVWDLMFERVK
The data set is described as above. Particulars: A (without competitor SAH), Cleavage; compound 2.5 μM, gel slice around 25 kDa. It counts as binding, E. coli K-12 strain. On the procedure: as §1, §2, §3, §4, §5, §6

A further data set addresses T5, SAH binding protein (Escherichia coli, UniProt P0AF12).
T5 construct: prepared from the DH5a derivative of the E. coli K-12 strain; endogenous in cells; host or cells: E. coli K-12 DH5a lysate
As to the kind of experiment: Click-and-cleave with proteins/lysate, SDS-PAGE/silver stain. Further details: species or system E. coli K-12 strain. Particulars: cleavage conditions (10 mM 2-nitrobenzhydrazide and 10 mM HCl in 50% acetonitrile). On the procedure: Compound 11 (final concentration 2.5 μM) was incubated for 5 min at 4° C. with a lysate (final total protein concentration 5 mg/ml) prepared from the DH5a derivative of the E. coli K-12 strain in phosphate buffered saline (final volume 100 μl). In a so called competition control (designated “C” as opposed to “A” for CCMS assay without the competitor SAH) carried out side-by-side, S-adenosyl-L-homocysteine (SAH) (final concentration 250 μM) was added to the lysate before compound 11 to compete for the binding of the SAH selectivity function of 11 to SAH binding proteins such as S-adenosyl-L-methionine (SAM) dependent methyltransferases. […]
The samples “A” and “C” were incubated with 250 μg 13 (CPT601, CCB 4, trans-cyclooctene (TCO) modified controlled pore glass (CPG). CPG-TCO beads), respectively, over night at 4° C. with rotation to keep the CPG beads (13) in suspension. […] Formed by the TCO-tetrazine click reaction, the fluorescent 18-11-protein conjugates were detected as in-gel fluorescent bands after SDS-PAGE. In the samples taken after incubation with 13, less in-gel fluorescent bands (18-11-protein conjugates) were detected than in the samples taken before incubation with 13, showing that 11-protein conjugates had reacted with 13 to form 13-11-protein conjugates. […]

[6] abbreviates: A (without competitor SAH), Cleavage (10 mM 2-nitrobenzhydrazide, 10 mM HCl).
[7] abbreviates: A (without competitor SAH), no Cleavage.
[8] abbreviates: C (competition control, SAH 250 μM), Cleavage.
The mark [9] stands for this setting: C (competition control, SAH 250 μM), no Cleavage.
[10] abbreviates: C (competition control, SAH 250 μM).

SMILES strings stand for the structures.

T2 sequence (P0A6U5 whole entry): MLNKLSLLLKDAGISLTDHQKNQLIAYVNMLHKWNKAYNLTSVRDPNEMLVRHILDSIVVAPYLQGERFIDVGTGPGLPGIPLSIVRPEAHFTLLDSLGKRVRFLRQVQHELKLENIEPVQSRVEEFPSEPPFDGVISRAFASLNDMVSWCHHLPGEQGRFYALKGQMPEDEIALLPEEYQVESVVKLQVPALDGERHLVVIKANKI
T5 sequence (P0AF12 whole entry): as the sequence (P0AF12 whole entry) above

For the molecule `Cc1nnc(-c2ccc(CN(CC(=O)NCCCCNc3ncnc4c3ncn4C3OC(CSCC[C@H](N)C(=O)O)C(O)C3O)C(=O)CC/C=N/N(C)C(=O)c3ccc(C4(C(F)(F)F)N=N4)cc3)cc2)nn1` (stereo partly drawn) [Compound 11, (2S)-2-amino-4-((3,4-dihydroxy-5-(6-(4-(2-((E)-N-(4-(6-methyl-1,2,4,5-tetrazin-3-yl)benzyl)-4-(2-methyl-2-(4-(3-(trifluoromethyl)-3H-diazirin-3-yl)benzoyl)hydrazono)butanamido)acetamido)butylamino)-9H-purin-9-yl)tetrahydrofuran-2-yl)methylthio)butanoic acid], the “fold higher intensity of 15 with 2-nitrobenzhydrazide and HCl than without” value in data set [1] (10 mM 2-nitrobenzhydrazide, 10 mM HCl vs 50% acetonitrile only) was “more than 50 fold”. The “Area/a.u. of LC-MS EIC 249.10 peak at 1.75 min (cleaved off photo-reacted reactivity function 15)” value amounted to 26722302 a.u in data set [1] (cleavage condition 10 mM 2-nitrobenzhydrazide, 10 mM HCl in 50% acetonitrile) and 491625 a.u in data set [1] (cleavage condition 50% acetonitrile). Moreover, the Normalized protein intensities in data set [2] (setting [6]) was 9.0E+07; in data set [2] (setting [7]) it was 4.0E+06; in data set [2] (setting [8]), 2.2E+06; in data set [2] (setting [9]), 1.0E+06; in data set [3] (A (without competitor SAH)) it was 7.8E+05; in data set [3] (setting [10]), 3.6E+05. In addition, the Normalized protein intensities in data set [4] (A (without competitor SAH)) amounted to 1.6E+06; in data set [4] (setting [10]), 2.9E+05; in data set [5], 4.0E+05. Further, the “gel band corresponding to a SAH binding protein after SDS-PAGE/silver stain” value on SAH binding protein is “present”.
As for `Cc1nnc(-c2ccc(CN(CC(=O)NCCCCNc3ncnc4c3ncn4C3OC(CSCC[C@H](N)C(=O)O)C(O)C3O)C(=O)c3ccc(C4(C(F)(F)F)N=N4)cc3)cc2)nn1` (some centres unmarked) [Compound 16], the Normalized protein intensities in data set [2] (setting [6]) amounted to 7.2E+06; in data set [2] (setting [7]) it was 1.9E+05; in data set [2] (setting [8]), 7.9E+05; in data set [2] (setting [9]), 2.6E+05; in data set [3] (A (without competitor SAH)), 1.5E+05; in data set [3] (setting [10]), 7.5E+04. For the same molecule, the “gel band corresponding to a SAH binding protein after SDS-PAGE/silver stain” value at SAH binding protein was “absent”.
